Calls of active or inactive are those of the source. The rule behind the calls is not given here.

In general, DC50 refers to the midpoint of the concentration-degradation curve.

Assay [1] addresses T1, von Hippel-Lindau disease tumor suppressor/Mitogen-activated protein kinase 7 (Homo sapiens, UniProt Q13164+P40337). Description: PROTAC activity at VHL/ERK5 in human A-375 cells assessed as induction of ERK5 degradation incubated for 12 hrs by western blot analysis. Format: cell-based. A general note: Immunoblotting shows a protein as a band on a membrane.
Target sequence in this assay (Q13164 whole entry): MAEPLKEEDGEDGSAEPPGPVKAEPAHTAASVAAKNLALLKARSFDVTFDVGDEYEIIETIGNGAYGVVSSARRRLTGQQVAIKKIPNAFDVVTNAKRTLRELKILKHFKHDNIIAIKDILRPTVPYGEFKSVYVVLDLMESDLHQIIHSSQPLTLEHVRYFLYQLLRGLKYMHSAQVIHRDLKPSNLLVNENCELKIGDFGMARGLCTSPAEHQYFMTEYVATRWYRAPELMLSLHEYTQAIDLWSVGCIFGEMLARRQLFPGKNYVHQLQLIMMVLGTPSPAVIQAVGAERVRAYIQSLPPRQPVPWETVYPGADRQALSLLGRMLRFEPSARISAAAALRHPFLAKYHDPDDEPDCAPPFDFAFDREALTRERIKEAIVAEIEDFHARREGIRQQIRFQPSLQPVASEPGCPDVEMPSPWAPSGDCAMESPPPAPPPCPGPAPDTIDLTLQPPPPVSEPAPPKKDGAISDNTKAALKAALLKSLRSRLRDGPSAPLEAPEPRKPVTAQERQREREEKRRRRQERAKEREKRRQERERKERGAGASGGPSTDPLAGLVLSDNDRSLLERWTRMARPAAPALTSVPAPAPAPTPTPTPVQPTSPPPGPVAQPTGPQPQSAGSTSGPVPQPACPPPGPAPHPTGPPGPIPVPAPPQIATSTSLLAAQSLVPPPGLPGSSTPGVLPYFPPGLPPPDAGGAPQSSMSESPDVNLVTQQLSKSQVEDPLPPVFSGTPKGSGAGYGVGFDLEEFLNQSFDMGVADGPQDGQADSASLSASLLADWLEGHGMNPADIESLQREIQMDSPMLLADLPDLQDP
Target sequence in this assay (P40337 whole entry): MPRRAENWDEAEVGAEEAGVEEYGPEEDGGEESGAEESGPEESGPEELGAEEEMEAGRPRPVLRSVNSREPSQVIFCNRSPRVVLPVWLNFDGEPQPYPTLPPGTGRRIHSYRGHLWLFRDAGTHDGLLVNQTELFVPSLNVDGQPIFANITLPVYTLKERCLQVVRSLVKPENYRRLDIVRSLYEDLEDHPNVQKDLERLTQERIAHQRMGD
Assay [2] addresses T1, von Hippel-Lindau disease tumor suppressor/Mitogen-activated protein kinase 7. Description: PROTAC activity at VHL/ERK5 in human NCI-H1975 cells assessed as induction of ERK5 degradation incubated for 12 hrs by western blot analysis. In kind it is cell-based.
Target sequence in this assay (Q13164 whole entry): as the sequence (Q13164 whole entry) above
Target sequence in this assay (P40337 whole entry): as the sequence (P40337 whole entry) above
Assay [3] concerns A-375. The experiment in a line: Inhibition of M2 macrophage development in human A-375 cells assessed as inhibition of cell colony formation at 0.5 uM cultured in macrophage M0 medium and measured after 7 days in presence of LPS by crystal violet staining based analysis. In kind it is functional. To be noted: time 7.0 day.
The next assay relates to HepG2. The experiment in a line: Antiproliferative activity against human HepG2 cells assessed as reduction in cell viability incubated for 72 hrs by CCK8 assay. In kind it is functional, cell-based. For orientation: Tetrazolium dyes change colour on reduction, which living cells bring about.
Assay [4] has as its system HCT-116. The experiment in a line: Antiproliferative activity against human HCT-116 cells assessed as reduction in cell viability incubated for 72 hrs by CCK8 assay. Format: functional, cell-based.
For assay [5], the target named is T1, von Hippel-Lindau disease tumor suppressor/Mitogen-activated protein kinase 7. The experiment in a line: PROTAC activity at VHL/ERK5 in human A-375 cells assessed as induction of ERK5 degradation incubated for 24 hrs by western blot analysis. In kind it is cell-based.
Target sequence in this assay (Q13164 whole entry): as the sequence (Q13164 whole entry) above
Target sequence in this assay (P40337 whole entry): as the sequence (P40337 whole entry) above
The target is the same in assay [6]. Description: PROTAC activity at VHL/ERK5 in human THP-1 cells assessed as decrease in IL-10 level at 0.5 uM incubated for 0.5 hrs followed by incubation with LPS for 24 hrs. In kind it is cell-based. To be noted: time 24.5 hrs.
Target sequence in this assay (P40337 whole entry partner): as the sequence (P40337 whole entry) above
Target sequence in this assay (Q13164 2-816 limits assumed): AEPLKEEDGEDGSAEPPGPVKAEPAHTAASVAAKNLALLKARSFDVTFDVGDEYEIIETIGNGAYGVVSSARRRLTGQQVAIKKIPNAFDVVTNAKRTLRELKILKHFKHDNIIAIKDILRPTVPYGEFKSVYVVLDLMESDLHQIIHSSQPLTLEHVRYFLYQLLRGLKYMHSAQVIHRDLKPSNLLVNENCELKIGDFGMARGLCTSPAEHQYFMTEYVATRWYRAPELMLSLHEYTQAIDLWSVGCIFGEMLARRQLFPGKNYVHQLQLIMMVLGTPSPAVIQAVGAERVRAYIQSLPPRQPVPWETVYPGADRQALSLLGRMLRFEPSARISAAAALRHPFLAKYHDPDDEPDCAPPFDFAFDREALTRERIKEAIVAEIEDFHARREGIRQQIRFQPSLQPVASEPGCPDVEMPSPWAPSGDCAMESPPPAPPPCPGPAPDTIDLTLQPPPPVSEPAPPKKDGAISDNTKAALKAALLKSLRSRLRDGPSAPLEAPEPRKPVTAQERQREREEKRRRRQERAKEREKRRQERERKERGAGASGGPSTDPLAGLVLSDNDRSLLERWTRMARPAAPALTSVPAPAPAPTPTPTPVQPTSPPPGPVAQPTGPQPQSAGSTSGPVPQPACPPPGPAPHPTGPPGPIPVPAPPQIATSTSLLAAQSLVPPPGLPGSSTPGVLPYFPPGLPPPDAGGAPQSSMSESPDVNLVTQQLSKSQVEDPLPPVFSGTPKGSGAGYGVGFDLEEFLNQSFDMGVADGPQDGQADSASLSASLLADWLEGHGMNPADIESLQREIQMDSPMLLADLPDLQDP
In assay [7] the test system is A-375. Description: Inhibition of cell colony formation in human A-375 cells at 0.5 uM cultured in 8% FBS and measured after 7 days in presence of LPS by crystal violet staining based analysis. Format: functional. To be noted: time 7.0 day.
For assay [8], the system named is HCT-116. The experiment in a line: Inhibition of M2 macrophage development in human HCT-116 cells assessed as inhibition of cell colony formation at 0.5 uM cultured in macrophage M0 medium and measured after 7 days in presence of LPS by crystal violet staining based analysis. In kind it is functional. To be noted: time 7.0 day.
Assay [9] concerns the target T1, von Hippel-Lindau disease tumor suppressor/Mitogen-activated protein kinase 7. The experiment in a line: PROTAC activity at VHL/ERK5 in human A-375 cells assessed as induction of ERK5 degradation at 200 nM incubated for 12 hrs by western blot analysis. Format: cell-based.
Target sequence in this assay (P40337 whole entry partner): as the sequence (P40337 whole entry) above
Target sequence in this assay (Q13164 2-816 limits assumed): as the sequence (Q13164 2-816 limits assumed) above
For assay [10] the target is unchanged. Description: PROTAC activity at VHL/ERK5 in human HCT-116 cells assessed as induction of ERK5 degradation incubated for 12 hrs by western blot analysis. Format: cell-based.
Target sequence in this assay (Q13164 whole entry): as the sequence (Q13164 whole entry) above
Target sequence in this assay (P40337 whole entry): as the sequence (P40337 whole entry) above
Assay [11] has the same target. The experiment in a line: PROTAC activity at VHL/ERK5 in human NCI-H1975 cells assessed as maximal induction of ERK5 degradation incubated for 12 hrs by western blot analysis relative to control. In kind it is cell-based.
Target sequence in this assay (P40337 whole entry partner): as the sequence (P40337 whole entry) above
Target sequence in this assay (Q13164 2-816 limits assumed): as the sequence (Q13164 2-816 limits assumed) above
The subject of assay [12] is A-375. Description: Effect on trametinib-induced antitumor activity against human A-375 cells assessed as reduction in cell viability at 200 nM incubated for 72 hrs by CCK8 assay. Format: functional, cell-based.
Assay [13] deals with A-375. The experiment in a line: Inhibition of M2 macrophage development in human A-375 cells assessed as inhibition of cell colony formation at 0.5 uM cultured in specific M2 medium and measured after 7 days in presence of LPS by crystal violet staining based analysis. Format: functional. Particulars: time 7.0 day.
Assay [14] relates to HCT-116. Description: Effect on cell migration in human HCT-116 cells at 0.01 to 1 uM incubated for 24 hrs by crystal violet staining based transwell assay. In kind it is functional. To be noted: dose 0.01-1 µM.
For assay [15], the system named is HCT-116. The experiment in a line: Effect on vemurafenib-induced antitumor activity against human HCT-116 cells assessed as reduction in cell viability at 200 nM incubated for 72 hrs by CCK8 assay. In kind it is functional, cell-based.
The test system of another assay is PC-3. The experiment in a line: Antiproliferative activity against human PC-3 cells assessed as reduction in cell viability incubated for 72 hrs by CCK8 assay. Format: functional, cell-based.
The target in assay [16] is T1, von Hippel-Lindau disease tumor suppressor/Mitogen-activated protein kinase 7. Description: PROTAC activity at VHL/ERK5 in human THP-1 cells assessed as decrease in IL-6 level at 0.5 uM incubated for 0.5 hrs followed by incubation with LPS for 24 hrs. Format: cell-based. To be noted: time 24.5 hrs.
Target sequence in this assay (P40337 whole entry partner): as the sequence (P40337 whole entry) above
Target sequence in this assay (Q13164 2-816 limits assumed): as the sequence (Q13164 2-816 limits assumed) above
Assay [17] has the same target. Description: PROTAC activity at VHL/ERK5 in human THP-1 cells assessed as induction of ERK5 degradation at 0.5 uM incubated for 0.5 hrs followed by incubation with LPS for 24 hrs by western blot analysis. Format: cell-based. To be noted: time 24.5 hrs.
Target sequence in this assay (P40337 whole entry partner): as the sequence (P40337 whole entry) above
Target sequence in this assay (Q13164 2-816 limits assumed): as the sequence (Q13164 2-816 limits assumed) above
In another assay the test system is THP-1. Description: Inhibition of M2 macrophage development in PMA-differentiated human THP-1 cells assessed as morphological alterations in macrophages at 0.5 uM incubated for 48 hrs by microscopic analysis. Format: functional, cell-based.
In assay [18] the test system is A-375. Description: Effect on cell migration in human A-375 cells at 0.01 to 1 uM incubated for 24 hrs by crystal violet staining based transwell assay. To be noted: dose 0.01-1 µM. Format: functional.
For assay [19], the target named is T1, von Hippel-Lindau disease tumor suppressor/Mitogen-activated protein kinase 7. The experiment in a line: PROTAC activity at VHL/ERK5 in human A-375 cells assessed as induction of ERK5 degradation at 200 nM pretreated for 1 hr with E3 ligase inhibitor, MLN4924 followed by incubation with compound for 12 hrs by western blot analysis. Format: cell-based.
Target sequence in this assay (P40337 whole entry partner): as the sequence (P40337 whole entry) above
Target sequence in this assay (Q13164 2-816 limits assumed): as the sequence (Q13164 2-816 limits assumed) above

Regarding `COc1cc(N2CCN(CCCCCCC(=O)N[C@H](C(=O)N3C[C@H](O)C[C@H]3C(=O)N[C@@H](C)c3ccc(-c4scnc4C)cc3)C(C)(C)C)CC2)ccc1Nc1ncc2c(n1)N(C)c1ccccc1C(=O)N2C`, the DC50 is 41.4 nM in [1], 11.5 nM in assay [2], approximately 17 nM in assay [5] and 5.6 nM in assay [10]. Further, the inhibition result in the assay with A-375 [3], with HCT-116 [8], in the assay on A-375 [13] and with THP-1 was “Active” throughout. The outcome in the assay with HepG2, in the assay with HCT-116 [4], in the assay with A-375 [12], in the assay with HCT-116 [14], with HCT-116 [15] and in the assay with PC-3 was inactive. Besides, the result (with A-375 [18]; in assay [19]) was inactive. For the same molecule, the result in assay [6], in [9], in [16] and in [17] was Active. Moreover, the inhibition result with A-375 [7] is “inactive”. Besides, in assay [11], the Activity worked out at 94.7%.

The values above are taken from ChEMBL document CHEMBL5365526 (J Med Chem, 2023).
